# Data: patent US8710099B2, “Treatment of cancer using the sodium salt of a benzoic acid derivative” (New York University, priority 2009, dated 2014)
# Legend:
# [1] = test system: Panc-1 human pancreatic carcinoma cells; assay: Panc-1 pancreatic carcinoma proliferation, MTT assay; assay type: cell-based; settings: 4.7, 9.3, 17.3, 37.5, and 75 μg/mL, 3 days; FIG. 14B
# Method: Panc-1 human pancreatic carcinoma cells were allowed to proliferate over a 3-day time course in the presence or absence of a series of concentrations of C-45-Na (4.7, 9.3, 17.3, 37.5, and 75 μg/mL) of or C-45-HCl. DMSO control samples lacking C-45-Na and were also prepared. Treated cells (1,500/well) were added to individual wells of a cell culture microtiter plate and allowed to grow over a time course of 3 days. Proliferation was monitored using a commercially available MTT assay (Millipore). Data points represent the mean±standard deviations from triplicate wells.
# [2] = test system: MDA-MB 231 human breast carcinoma cells; assay: MDA-MB 231 breast carcinoma proliferation, MTT assay; assay type: cell-based; settings: 100 μg/mL, 0.5% serum, 3 days; FIG. 14A
# Method: (§1) MDA-MB 231 human breast carcinoma cells were washed and re-suspended in proliferation buffer containing 0.5% serum in the presence of 100 μg/mL of C-45-Na or C-45-HCl. DMSO control samples lacking C-45-Na and C-45-HCl were also prepared. Treated cells (1,500/well) were added to individual wells of a cell culture microtiter plate and allowed to grow over a time course of 3 days. Proliferation was monitored using a commercially available MTT assay (Millipore). Data points represent the mean±standard deviations from triplicate wells.
# [3] = test system: C8161 melanoma cells; assay: Melanoma cell morphology; assay type: cell-based, human; settings: 100 μg/mL, 24 hours; FIG. 11B
# Method: (§2) Human M21 melanoma cells or C8161 melanoma cells were incubated in the presence of 100 μg/mL of C-45-Na or C-45-HCl for 24 hours. DMSO control samples lacking C-45-Na and C-45-HCl were also prepared.
# [4] = test system: C8161 human melanoma cells; assay: C8161 melanoma cell proliferation, MTT assay; assay type: cell-based; settings: 100 μg/mL, 0.5% serum, 3 days; FIG. 13A
# Method: as §1, with “C8161 and A375” for “MDA-MB 231”, “melanoma” for “breast carcinoma”
# [5] = test system: Human M21 melanoma cells; assay: Melanoma cell morphology; assay type: cell-based; settings: 100 μg/mL, 24 hours; FIG. 11A
# Method: as §2
# [6] = test system: Human M21 melanoma cells; assay: M21 melanoma cell proliferation, MTT assay; assay type: cell-based
# Method: as §1, with “Human M21 melanoma cells” for “MDA-MB 231 human breast carcinoma cells”, “containing 1.0%” for “containing 0.5%”, “presence or absence” for “presence”, “100 ng/mL” for “100 μg/mL”, “of C-45-Na,” for “of C-45-Na”, “C-45-Na or” for “C-45-Na and”
# Human M21 melanoma cells were washed and re-suspended in proliferation buffer containing 1.0% serum in the presence or absence of 100 ng/mL of C-45-Na, or C-45-HCl. Treated cells (1,500/well) were added to individual wells of a cell culture microtiter plate and allowed to grow over a time course of 3 days. Proliferation was monitored using a commercially available MTT assay (Millipore). Data points represent the mean±standard deviations from triplicate wells.
# as §1, with “Human M21 melanoma” for “MDA-MB 231 human breast carcinoma”, “50” for “100”, “C-45-Na, C-45-K,” for “C-45-Na”
# (§3) In Example 6, the differential effects of C-45-Na on normal human melanocytes, normal human keratinocytes and human melanoma cells were examined Normal human melanocytes, keratinocytes and M21 melanoma cells were allowed to proliferate in the presence or absence of C-45-Na (50 μg/mL) for 24 hours. Proliferation was monitored using a commercially available MTT assay (Millipore).
# [7] = test system: normal human keratinocytes; assay: Normal keratinocyte proliferation, MTT assay; assay type: cell-based; settings: 50 μg/mL, 24 hours; FIG. 12C
# Method: as §3
# [8] = test system: A375 human melanoma cells; assay: A375 melanoma cell proliferation, MTT assay; assay type: cell-based; settings: 100 μg/mL, 0.5% serum, 3 days; FIG. 13B
# Method: as §1, with “C8161 and A375” for “MDA-MB 231”, “melanoma” for “breast carcinoma”
# [9] = test system: Normal human melanocytes; assay: Normal melanocyte proliferation, MTT assay; assay type: cell-based; settings: 50 μg/mL, 24 hours; FIG. 12B
# Method: as §3
# [10] = test system: M21 melanoma cells; assay: M21 melanoma tumor growth in nude mice; assay type: in vivo
# Method: Briefly, M21 melanoma cells (4.0×10^6) were injected subcutaneously in nude mice. Following establishment of palpable tumors (4 days), mice were either left untreated or treated daily by i.p injection with DMSO (50 μl/day), or with C-45-Na (50 μl/day) or C-45-HCl (50 μl/day) at a concentration range of 1-100 ug/day. Tumor size was monitored by caliper measurements and tumor volumes were estimated using the formula (L^2×W/2) where “L” represents length, and “W” represents width.
# The effects of C45-Na on M21 melanoma tumor growth in vivo were studied. Briefly, M21 melanoma cells (4.0×10^6) were injected subcutaneously in nude mice. Following establishment of palpable tumors (4 days), mice were either left untreated or treated daily by i.p injection with DMSO (50 μl/day), or with C-45-Na concentrations of 0.1, 0.5, or 1.0 μg/day. Tumor size was monitored by caliper measurements and tumor volumes were estimated using the formula (L^2×W/2) where “L” represents length, and “W” represents width.
# In experiment 11, an activity comparison between C-45-Na (1.0 μg) and C45-HCl (1.0 μg) on the in vivo growth of M21 tumors was examined following daily treatment after 21 days. Tumor size was monitored by caliper measurements and tumor volumes were estimated using the formula (L^2×W/2) where “L” represents length, and “W” represents width.
smiles,measurement,setting,value
"C=CCNc1ccc(C(=O)[O-])cc1.[Na+] [C-45-Na, Sodium 4-allylaminobenzoate]",panc-1 cell proliferation,[1],very potent anti-proliferative activity
same,MDA-MB 231 cell proliferation,[2],very potent anti-proliferative activity
same,"cell morphology, C8161",[3],significant cell rounding
same,C8161 tumor cell proliferation,[4],very potent anti-proliferative activity
same,"cell morphology, M21",[5],significant cell rounding
same,"selectivity, tumor cells versus normal human cells","[6]; 50 μg/mL, 24 hours, M21 vs melanocytes and keratinocytes",selective for tumor cell proliferation rather than normal human cells
same,M21 tumor cell proliferation,"[6]; Experiment 1: 100 ng/mL, 1.0% serum, 3 days, FIG. 6",very potent anti-proliferative activity
same,M21 tumor cell proliferation,"[6]; Experiment 2: 100 ng/mL, 1.0% serum, 3 days, FIG. 7",very potent anti-proliferative activity
same,M21 tumor cell proliferation,"[6]; Experiment 3: 50 μg/mL, 0.5% serum, 3 days, FIG. 15",very potent anti-proliferative activity
same,M21 tumor cell proliferation,"[6]; Experiment 8: 50 μg/mL, 24 hours, FIG. 12A",very potent anti-proliferative activity
same,effect on proliferation of normal human keratinocytes,[7],very little effect
same,A375 tumor cell proliferation,[8],very potent anti-proliferative activity
same,effect on proliferation of normal human melanocytes,[9],very little effect
same,inhibition of M21 melanoma tumor growth,"[10]; Experiment 9: daily i.p., 1.0 μg/day",Significant inhibition
same,inhibition of tumor growth,"[10]; Experiment 10: daily i.p., 0.1, 0.5, or 1.0 μg/day, days 8, 14, and 21 (P<0.05), FIG. 16",significant inhibition of tumor growth
same,inhibition of tumor growth,"[10]; Experiment 11: 1.0 μg daily, day 21 (P<0.05), FIG. 17",significant inhibition of tumor growth
